Measurements from patent publication EP0213571A2, “3-Aminomethyl pyrrol-1-yl-alkyl amines and medicaments containing these compounds” (BASF Aktiengesellschaft, priority 1985, dated 1987).

Test system: Histamin-H₂-Rezeptor
Assay: Antagonism of the dimaprit-induced fall in blood pressure in the anaesthetised rat, test substance given i.v.
Type: in vivo, Ratten (Stamm: Sprague-Dawley, männlich)
Procedure: Sie kann in 1 bis 4 Dosen/Tag aufgeteilt werden.
Zum Nachweis der Histamin-H₂-Rezeptor-blockierenden Wirkung wird folgende Methode angewendet.
Die Applikation der geprüften Substanzen erfolgt intravenös 5 min vor der Dimaprit-Injektion. Als ED 50 % werden die Dosen ermittelt, welche die Dimaprit-Blutdrucksenkung um 50 % hemmen.

For `CNC(=NC#N)NCCSCc1nc[nH]c1C` [Cimetidin], the “Hemmung der Dimaprit-Blutdrucksenkung” value (anaesthetised rats (urethane 1,78 g/kg i.p.), substance i.v. 5 min before Dimaprit 3,16 mg/kg i.v.) was “hemmen diese Dimaprit-Blutdrucksenkung dosisabhängig”.

In the case of `CN(C)CCCSC(=N)N` [Dimaprit, S-[3-(N,N-dimethylamino)propyl]isothio urea], the Blutdrucksenkungen (Dimaprit 3,16 mg/kg i.v. alone, anaesthetised rats, mean, baseline pressure 100 ± 1, 1 mmHg, N = 70) is reported as 27 ± 0,7 mmHg.

For `CNC(=NC#N)NCCCCn1c(C)ccc1C` [Verbindung des Beispiels 12], the “Histamin-H₂-Rezeptoren-blockierende Wirkung” value (result in words, potency compared with Cimetidin, b35 names no test, assigned to the only test described) was “wesentlich schwächer wirksam als Cimetidin”.
